The source made the active and inactive calls.
Experiments:
[1] = viability of PTEN-deleted HCT116 cells – cell-based, HCT116 PTEN knockout, dose response (AID 1047); assay type: functional;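 also: HCT116 colon tumor cells with PTEN knocked out; cells exposed to compound for 60 hours before readout; potency for loss of cell viability measured by luminescence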
[2] = viability of HCT116 lacking mutant beta-catenin – cell-based, human colon tumor, dose response (AID 1045); assay type: functional;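 also: HCT116 colon tumor cells with beta catenin knocked out; cells exposed to compound for 60 hours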
[3] = system: Streptococcus sp. 'group A'; assay: Streptococcus pyogenes SK(-)GAS viability under kanamycin – luminescence, BacTiterGlo, confirmation, counter-screen for streptokinase expression inhibitor project, dose response (AID 1900); assay type: functional, organism-based
[4] = target: T1, Streptokinase A (Streptococcus pyogenes serotype M1, UniProt P10520); assay: viability-normalized secreted streptokinase activity reduction – plasminogen activation absorbance, OD405, dose response (AID 1914); assay type: functional, Streptococcus pyogenes M1 GAS;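 also: secreted streptokinase activity via plasminogen activation per viability signal from cell pellet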
T1 sequence (P10520 whole entry): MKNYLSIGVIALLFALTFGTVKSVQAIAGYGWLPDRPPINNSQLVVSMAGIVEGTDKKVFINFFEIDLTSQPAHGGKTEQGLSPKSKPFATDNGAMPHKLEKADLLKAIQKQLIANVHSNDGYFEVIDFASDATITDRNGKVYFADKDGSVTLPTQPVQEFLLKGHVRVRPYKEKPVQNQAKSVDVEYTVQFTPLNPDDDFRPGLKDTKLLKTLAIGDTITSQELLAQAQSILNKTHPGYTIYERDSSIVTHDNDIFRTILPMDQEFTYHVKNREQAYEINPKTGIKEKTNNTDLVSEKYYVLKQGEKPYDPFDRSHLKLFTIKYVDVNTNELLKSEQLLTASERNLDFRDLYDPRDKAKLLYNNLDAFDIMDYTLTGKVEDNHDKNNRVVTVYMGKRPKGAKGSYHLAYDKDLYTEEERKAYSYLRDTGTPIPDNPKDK

[5] = microbe, parasite or virus in culture; assay type: functional; settings: Mycobacterium tuberculosis
[6] = system: Streptococcus; assay: GAS UMAA2166 growth inhibition – luminescence, BacTiterGlo, counter-screen for streptokinase expression inhibitor project, dose response (AID 1915); assay type: functional, organism-based;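 also: potency for reduction of bacterial viability or growth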
[7] = target: T2, Short transient receptor potential channel 4 (Mus musculus, UniProt Q9QUQ5); assay: block of DAMGO-driven TRPC4 calcium entry – cell-based, HEK293 TRPC4/mu-opioid, Fluo-4 calcium, dose response (AID 434942); assay type: functional;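 also: potency of inhibitors blocking the TRPC4 calcium response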
T2 sequence (Q9QUQ5 whole entry): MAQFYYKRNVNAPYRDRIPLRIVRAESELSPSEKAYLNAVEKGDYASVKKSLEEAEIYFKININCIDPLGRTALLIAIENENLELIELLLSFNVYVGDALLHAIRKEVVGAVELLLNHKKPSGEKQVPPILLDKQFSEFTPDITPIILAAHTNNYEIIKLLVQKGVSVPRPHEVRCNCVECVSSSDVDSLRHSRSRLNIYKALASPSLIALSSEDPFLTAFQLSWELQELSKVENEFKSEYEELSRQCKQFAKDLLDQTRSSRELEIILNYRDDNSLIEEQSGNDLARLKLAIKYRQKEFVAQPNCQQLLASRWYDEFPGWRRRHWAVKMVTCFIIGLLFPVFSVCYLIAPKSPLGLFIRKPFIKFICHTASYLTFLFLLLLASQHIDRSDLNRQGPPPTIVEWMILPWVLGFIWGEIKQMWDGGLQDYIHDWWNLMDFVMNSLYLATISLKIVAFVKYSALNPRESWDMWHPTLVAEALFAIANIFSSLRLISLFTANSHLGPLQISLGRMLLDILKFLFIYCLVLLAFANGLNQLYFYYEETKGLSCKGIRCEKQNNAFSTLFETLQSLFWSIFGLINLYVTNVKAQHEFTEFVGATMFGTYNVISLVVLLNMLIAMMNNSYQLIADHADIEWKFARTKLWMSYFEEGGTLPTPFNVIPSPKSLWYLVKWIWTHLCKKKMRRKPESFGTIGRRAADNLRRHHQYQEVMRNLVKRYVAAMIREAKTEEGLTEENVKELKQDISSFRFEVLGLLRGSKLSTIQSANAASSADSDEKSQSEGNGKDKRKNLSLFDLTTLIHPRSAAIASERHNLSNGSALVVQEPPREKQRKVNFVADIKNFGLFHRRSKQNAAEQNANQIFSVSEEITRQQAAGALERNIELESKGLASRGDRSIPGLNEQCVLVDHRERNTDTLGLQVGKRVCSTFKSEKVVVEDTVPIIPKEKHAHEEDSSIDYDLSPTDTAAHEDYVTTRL

[8] = target: T3, Protein skinhead-1 (Caenorhabditis elegans, UniProt P34707); assay type: functional
T3 sequence (P34707 whole entry): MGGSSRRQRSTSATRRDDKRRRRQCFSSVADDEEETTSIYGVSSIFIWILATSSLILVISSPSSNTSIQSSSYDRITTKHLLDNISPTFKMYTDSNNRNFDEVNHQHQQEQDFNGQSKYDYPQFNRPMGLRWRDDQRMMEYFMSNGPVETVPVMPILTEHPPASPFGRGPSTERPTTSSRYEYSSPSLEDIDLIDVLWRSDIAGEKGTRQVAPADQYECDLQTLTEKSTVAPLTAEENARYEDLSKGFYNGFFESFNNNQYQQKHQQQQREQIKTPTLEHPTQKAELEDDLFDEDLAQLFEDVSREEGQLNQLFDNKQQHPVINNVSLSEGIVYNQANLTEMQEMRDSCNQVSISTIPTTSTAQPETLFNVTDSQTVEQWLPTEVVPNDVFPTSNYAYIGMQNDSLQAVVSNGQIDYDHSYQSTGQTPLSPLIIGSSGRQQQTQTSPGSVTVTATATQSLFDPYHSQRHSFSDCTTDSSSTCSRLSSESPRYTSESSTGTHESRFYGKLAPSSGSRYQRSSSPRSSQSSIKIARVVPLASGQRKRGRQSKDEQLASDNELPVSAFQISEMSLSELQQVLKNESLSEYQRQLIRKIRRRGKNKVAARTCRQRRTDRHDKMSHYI

[9] = luciferase reporter signal suppression in cells – H4 neuroglioma cells, luminescence, dose response (AID 1990); assay type: functional, cell-based
[10] = system: BJ; assay: BJ-TERT fibroblast viability loss – cell-based, RAS-independent, luminescence, dose response (AID 1933); assay type: functional; settings: Homo sapiens
[11] = Luminescence Cell-Based Dose Response HTS to Identify Inhibitors of 5'UTR Stem-Loop Driven Prion Protein mRNA Translation in H4 Neuroglioblastoma Cells. [Related pubchem assays: 1827 (Project Summary), 1813 (Primary HTS)]; assay type: functional
[12] = alpha-synuclein stem-loop luciferase translation blockers – H4 neuroglioma cells, luminescence, confirmation (AID 1988); assay type: functional, cell-based
[13] = system: BJ; assay: cells; assay type: functional, cell-based; settings: Homo sapiens
[14] = system: BJ; assay: BJ-TERT-LT-ST fibroblast viability loss – cell-based, RAS-independent, luminescence, dose response (AID 1935); assay type: functional; settings: Homo sapiens;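 also: BJ fibroblasts immortalized with TERT plus LT and ST oncogenes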
[15] = DRD fibroblast viability loss – cell-based, non-viral oncogenic, luminescence, dose response (AID 1934); assay type: functional; settings: Homo sapiens
[16] = target: Nonstructural protein 1 (Influenza A virus, UniProt Q194T2); assay type: functional, Influenza A virus (A/California/07/2009(H1N1))
[17] = system: INS1; assay: INS-1E survival protection against cytokine death – cell-based, luminescence, retest, dose response (AID 449756); assay type: functional; settings: Rattus norvegicus;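 also: cell death triggered by IL-1 beta plus TNF-alpha plus IFN-gamma mixture; protective hits raise ATP signal compared with cytokine alone wells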
[18] = target: T2, Short transient receptor potential channel 4; assay: calcium entry via TRPC4 opening agents – cell-based, HEK293 TRPC4/mu-opioid, Fluo-4 calcium, dose response (AID 434937); assay type: functional
[19] = target: T4, Corticotropin-releasing factor receptor 2/Corticotropin-releasing factor-binding protein (Homo sapiens, UniProt P24387+Q13324); assay: activators of CRF receptor 2 with binding protein – uHTS hits, confirmation (AID 602473); assay type: functional; settings: read-out: EC50_Mean
T4 sequence (Q13324 whole entry): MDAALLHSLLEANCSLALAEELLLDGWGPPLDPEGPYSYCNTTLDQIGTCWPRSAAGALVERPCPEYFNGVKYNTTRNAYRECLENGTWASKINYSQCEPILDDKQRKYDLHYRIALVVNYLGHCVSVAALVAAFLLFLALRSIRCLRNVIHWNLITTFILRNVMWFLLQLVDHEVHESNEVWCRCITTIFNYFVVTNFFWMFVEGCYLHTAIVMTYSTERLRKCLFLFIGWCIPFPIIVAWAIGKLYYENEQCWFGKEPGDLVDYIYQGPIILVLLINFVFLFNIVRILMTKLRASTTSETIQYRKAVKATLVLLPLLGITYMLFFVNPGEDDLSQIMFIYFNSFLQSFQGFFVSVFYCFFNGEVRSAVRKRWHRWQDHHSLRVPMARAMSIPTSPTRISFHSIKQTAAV
T4 sequence (P24387 whole entry): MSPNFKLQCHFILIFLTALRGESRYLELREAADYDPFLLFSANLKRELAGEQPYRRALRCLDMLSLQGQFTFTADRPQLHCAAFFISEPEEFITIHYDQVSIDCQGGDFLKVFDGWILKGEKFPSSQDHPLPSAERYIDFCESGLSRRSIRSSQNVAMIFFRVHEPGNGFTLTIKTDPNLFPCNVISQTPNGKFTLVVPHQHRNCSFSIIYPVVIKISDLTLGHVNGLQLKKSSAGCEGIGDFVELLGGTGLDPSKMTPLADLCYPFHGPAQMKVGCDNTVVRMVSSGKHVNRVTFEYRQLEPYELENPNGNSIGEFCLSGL

[20] = target: T5, Heat shock factor protein 1 (Mus musculus, UniProt P38532); assay: enhancement of HSF1-driven luciferase signal – cell-based, NIH3T3, luminescence, dose retest, confirmation (AID 435004); assay type: functional;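 also: stress induced by proteasome inhibitor MG132 added 30 min after compound; luciferase reporter driven by HSF1 response element in NIH3T3 cells; actives raise luminescence as potentiators of the MG132 stress response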
T5 sequence (P38532 whole entry): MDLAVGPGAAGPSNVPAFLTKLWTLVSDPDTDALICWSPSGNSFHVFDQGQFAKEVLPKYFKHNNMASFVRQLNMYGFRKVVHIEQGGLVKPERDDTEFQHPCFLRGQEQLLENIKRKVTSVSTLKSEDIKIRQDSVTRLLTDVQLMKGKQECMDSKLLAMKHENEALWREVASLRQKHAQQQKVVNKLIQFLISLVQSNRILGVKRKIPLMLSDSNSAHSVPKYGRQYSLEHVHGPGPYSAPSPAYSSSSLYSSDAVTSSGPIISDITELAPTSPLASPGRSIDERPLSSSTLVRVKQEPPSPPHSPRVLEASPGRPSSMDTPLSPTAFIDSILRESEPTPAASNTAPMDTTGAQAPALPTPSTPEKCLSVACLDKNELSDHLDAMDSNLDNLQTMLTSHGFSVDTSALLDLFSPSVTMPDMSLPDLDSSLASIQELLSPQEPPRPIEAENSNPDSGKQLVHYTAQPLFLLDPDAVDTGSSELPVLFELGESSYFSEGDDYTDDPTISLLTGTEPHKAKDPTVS

Chain of Nonstructural protein 1 (Q194T2 whole entry): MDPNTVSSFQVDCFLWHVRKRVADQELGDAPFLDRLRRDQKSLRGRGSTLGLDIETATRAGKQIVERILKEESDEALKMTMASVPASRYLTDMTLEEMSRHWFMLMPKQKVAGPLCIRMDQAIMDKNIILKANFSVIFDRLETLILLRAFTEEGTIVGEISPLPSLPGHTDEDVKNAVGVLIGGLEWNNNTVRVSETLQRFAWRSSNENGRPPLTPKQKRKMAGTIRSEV

## N#Cc1cc2c(nc1SCC(=O)Nc1cc(Cl)ccc1Cl)C1CCN2CC1
[1]
  EC50: 6 µM (active)
[2]
  EC50: 3.02 µM (active)

## Cc1cccc(/C=c2\s/c(=C\C(=O)C(C)(C)C)[nH]c2=O)c1
[3]
  EC50: 10 µM (active)
[4]
  EC50: > 150 µM (not active)
[5]
  CC50: 24.7 µM (active)
[6]
  EC50: 17.2 µM (active)

## COc1ccc(C2C(C(C)=O)=C(O)C(=O)N2c2ccc(Br)cc2)cc1 (stereo unspecified)
[7]
  EC50: 0.668 µM (active)

## Nc1ccc(C=C2C=Cc3ccccc32)cc1
[8]
  IC50: 21.3 µM (active)

## Cc1[nH]n(-c2ccccc2)c(=O)c1N=Nc1c(O)cc(S(=O)(=O)N(C)C)c2ccccc12
[9]
  EC50: 3.37 µM (active)
[3]
  EC50: 2.21 µM (active)
[10]
  EC50: 7.94 µM (active)
[11]
  EC50: 6.77 µM (active)
[12]
  EC50: 2.12 µM (active)
[13]
  EC50: 10.3 µM (active)
[14]
  EC50: 10.1 µM (active)
[15]
  EC50: 7.77 µM (active)
[6]
  EC50: 6.64 µM (active)
[16]
  IC50: 19.8 µM (active)
[17]
  AC50: 0.949 µM (active)

## O=C(NCC(c1cccs1)N1CCOCC1)c1ccc(Cl)c([N+](=O)[O-])c1 (stereo unspecified)
[18]
  EC50: 5.31 µM (active)

## COc1ccc(CNCCc2ccc3c(c2)OCO3)cc1Br
[18]
  EC50: 3.76 µM (active)

## COc1ccc(NS(=O)(=O)c2ccc(N/N=C/c3ccc(N4CCOCC4)cc3)c([N+](=O)[O-])c2)cc1
[1]
  EC50: 6.25 µM (active)
[2]
  EC50: 5.68 µM (active)

## C#CC[N+](C)(C)CCCCCCCC
[1]
  EC50: 13.6 µM (active)
[2]
  EC50: 16 µM (active)
[19]
  EC50: > 53 µM (inactive)

## OCC1(Cc2ccccc2)CCCN(Cc2cnn(-c3ccccc3)c2)C1 (stereo unspecified)
[7]
  EC50: 4.22 µM (active)

## CN(C)CCNC(=O)c1ccc(COc2ccc(Cl)cc2Cl)cc1
[1]
  EC50: 10.7 µM (active)
[2]
  EC50: 9 µM (active)

## COc1ccccc1CNCC(c1ccccc1)c1ccccc1
[7]
  EC50: 4.73 µM (active)
[20]
  EC50: > 260 µM (inactive)

— ChEMBL document CHEMBL1201862, “PubChem BioAssay data set” (2004)
